Assay results: paper PMC8149590, “Biochemical Characterization of a Novel Bacterial Laccase and Improvement of Its Efficiency by Directed Evolution on Dye Degradation” (Frontiers in Microbiology, 2021)

Tested on: T1, rlac1338
T1 construct: gene lac1338; 1,338 bp gene (about 445 residues), codon-optimised, in pET-32a(+), E. coli BL21(DE3); His-tag fusion (18 kD vector tag), ~68 kD by SDS-PAGE
Test: initial rates by OD405, Lineweaver-Burk
Format: biochemical, uncultured bacterium
Conditions: ± sign lost in table text
Excerpt: initial rates by OD405, Lineweaver-Burk on rlac1338

[1] = mutant lac2-9, optimal pH 6.5 and 60°C, printed base change T698A falls in codon 233, not 232

Row | Compound | Km [1] [µM] | Km (optimal pH 6.0 and 55°C) [µM]
1 | COc1cccc(OC)c1O [2,6-DMP] | 560 ± 3.7 | 654 ± 2.1
2 | COc1ccccc1O [Guaiacol] | 4300 | 4900
3 | CCn1c(=NN=c2sc3cc(S(=O)(=O)O)ccc3n2CC)sc2cc(S(=O)(=O)O)ccc21 [ABTS, 2,2-azide-bis (3-ethylbenzothiazole-6-sulfonic acid)] | 76 ± 1.8 | 210 ± 3.3
4 | Oc1ccccc1O [Catecho] | 570 ± 2.9 | 507 ± 2.5
5 | Oc1cccc2ccccc12 [1-naphthol] | 6040 | 5600
